Test results: EP4122917A1, “C2-THIOETHER […] AND TETRAMERS AND USE THEREOF” (priority 2021, dated 2023)

Tested on: SARS-CoV-2 virus carrying the D614G mutation in the S protein
Type: cell-based
Conditions: read-out: IC50 (µM) SARS-CoV-2 (Vero E6)

Structure (SMILES) | IC50 [µM]
CC(=O)c1ccc(Sc2[nH]c3ccccc3c2C[C@H](NC(=O)CCC(CCC(=O)N[C@@H](Cc2c(Sc3ccc(C(C)=O)cc3)[nH]c3ccccc23)C(=O)O)(CCC(=O)N[C@@H](Cc2c(Sc3ccc(C(C)=O)cc3)[nH]c3ccccc23)C(=O)O)NC(=O)CN)C(=O)O)cc1 [Compound 7c] | 13.3
NCC(=O)NC(CCC(=O)N[C@@H](Cc1c(Sc2ccc([N+](=O)[O-])cc2)[nH]c2ccccc12)C(=O)O)(CCC(=O)N[C@@H](Cc1c(Sc2ccc([N+](=O)[O-])cc2)[nH]c2ccccc12)C(=O)O)CCC(=O)N[C@@H](Cc1c(Sc2ccc([N+](=O)[O-])cc2)[nH]c2ccccc12)C(=O)O [Compound 7a] | 3.02
